Patent US9682114B2, “Plant extracts of Ptaeroxylon obliquum nand compounds having antimicrobial and antihelminthic activity” (UNIVERSITY OF PRETORIA, priority 2013, dated 2017)
Values after ≈ are worked out from the molar mass of the structure shown. Read-outs that look alike come from different tables or passages of the source.

Experiments:
Aspergillus fumigatus = experiment: Microplate dilution MIC, opportunistic fungi (Example 9); assay type: cell-based
Source text: (§1) The microplate dilution method (Eloff, 1998), with slight modification (Masoko et al., 2005) was used to test the antifungal activity of the crude extracts, fractions and isolated compounds from P. obliquum. Clinical isolates of the four opportunistic fungal strains Aspergillus fumigatus, Candida albicans, Crytococcus neoformans and Candida albicans ATCC 10231 were used to test for antifungal activity.

Cryptococcus neoformans = experiment: as above; assay type: cell-based
Source text: as §1

[1] = tested on: Candida albicans ATCC 10231; experiment: as above; assay type: cell-based; conditions: ATCC10231
Source text: as §1

[2] = tested on: Candida albicans (clinical isolate); experiment: as above; assay type: cell-based
Source text: as §1

mouse fibroblast cells = conditions: 5 days
Source text: (§5) The MTT assay was used to determine the cytotoxicity of dried acetone extracts of H. caffrum (leaves); P. obliquum (leaves); R. melanophloeos (leaves) and S. birrea (stem bark) reconstituted in dimethyl sulphoxide (DMSO) against Mouse fibroblast cells (obtained from the Department of Plant Science, Faculty of Natural and Agricultural Sciences, University of Pretoria, South Africa).
(§6) MTT (yellow) is reduced into a formazan (purple) by viable cells. The colour intensity of the formazan produced, which is directly proportional to the number of viable cells, is measured using a spectrophotometer (Mosmann, 1983; Shai, 2007).
(§7) Cells were maintained in minimal essential medium (MEM) (Highveld Biological, South Africa) supplemented with 0.1% gentamicin (Virbac) and 5% foetal calf serum (Adcock-lngram). […] Dried crude plant extracts (100 mg) were reconstituted in 1 ml of DMSO and serial 10-fold dilutions of each extract were prepared in growth medium. The growth medium on sub-confluent monolayer cells grown overnight in microtitre plates was removed and cells were exposed to 200 μl of the extracts at different concentrations and incubated again at 37° C. for 5 days. Viability of cells was determined using the tetrazolium-based colorimetric assay (MTT assay) described by Mossmann (1983). Before the addition of MTT, the extract-containing medium on the cells was replaced with fresh culture medium to exclude reduction of the tetrazolium compound by plant extracts. The assay is based on mitochondrial dehydrogenase activity which is assessed by the reductive cleavage of the tetrazolium salt MTT [3-(4.5-dimethylthiazolyl)2.5-diphenyltetrazolium bromide] due to the succinic dehydrogenase present in living cells to yield a purple formazan dye. The cells were incubated with 30 μl of 5 mg/ml MTT in phosphate-buffered saline (PBS) for four hours. Thereafter, medium was removed and cells washed with PBS. DMSO (50 μl) was added to the cells and absorbance was measured using a Versamax microplate reader at 570 nm. Berberine chloride (Sigma) was used as a positive control, wells containing only cells acted as the negative control and a solvent control was also included. The percentage cell viability following the addition of varying concentrations of the extracts in relation to controls was calculated. The LC50 values were calculated (using SoftMax Pro4.8 Software) as the concentration of plant extracts resulting in 50 percent reduction of absorbance compared to untreated cells. Tests were carried out in quadruplicate and each experiment was repeated three times.

in vitro [3] = conditions: mouse, LC50 (cytotoxicity)
Source text: as §5, §6, §7

Mycobacterium fortuitum = experiment: Serial microplate dilution MIC, mycobacteria; assay type: cell-based
Mycobacterium aurum = experiment: Serial microplate dilution MIC, mycobacteria; assay type: cell-based; conditions: Mycolicibacterium aurum
[4] = tested on: Haemonchus contortus (egg); experiment: Egg hatch assay (EHA); assay type: cell-based; conditions: egg of Haemonchus contortus; read-out: Antihelminthic activity EC50 (mg/ml) EDA
Procedure: (§2) The extract and isolated compound were tested for activity on Haemonchus contortus.

Mycobacterium bovis = experiment: microbe, parasite or virus in culture; assay type: cell-based
[5] = tested on: bacterial strains (E. coli, E. faecalis, P. aeruginosa, S. aureus, S. typhi); experiment: Antibacterial MIC, summary statements over all bacterial strains tested; assay type: cell-based; conditions: read-out: MIC (bacteria tested, summary)
Procedure: (§3) The serial microplate dilution method developed by Eloff (1998) was used to determine the minimal inhibitory concentration (MIC) of the crude extracts, fractions and isolated compounds from P. obliquum against several bacterial strains. The antimicrobial activity was determined against the bacterial strains Escherichia coli ATTC 27853, Escherichia coli ATTC 6739, Enterococcus faecalis ATCC 29212, Pseudomonas aeruginosa ATCC 25922, Staphylococcus aureus ATCC 6538, Staphylococcus aureus ATCC 29213, Salmonella typhi ATCC 14028.

[6] = tested on: Haemonchus contortus (larva); experiment: Larval development test (LDT); assay type: cell-based
Procedure: as §2

in vitro [7] = experiment: in vitro
Mycobacterium smegmatis = experiment: Serial microplate dilution MIC, mycobacteria; assay type: cell-based
[8] = tested on: Candida albicans standard strain (ATCC 10231) and clinical isolates; experiment: Broth micro-dilution assay, minimal inhibitory concentration (MIC); assay type: cell-based; conditions: for MIC: Candida albicans, read-out: MIC; for Selectivity index (SI): LC50 against mouse fibroblast cells/MIC
[9] = tested on: Salmonella typhi ATCC 14028; experiment: Serial microplate dilution MIC, bacteria; assay type: cell-based; conditions: Salmonella enterica
Procedure: as §3

[10] = tested on: Staphylococcus aureus ATCC 6538; experiment: Serial microplate dilution MIC, bacteria; assay type: cell-based; conditions: ATCC6538
Procedure: as §3

[11] = tested on: Escherichia coli ATTC 27853; experiment: Serial microplate dilution MIC, bacteria; assay type: cell-based; conditions: ATTC27853
Procedure: as §3

[12] = tested on: Escherichia coli ATTC 6739; experiment: Serial microplate dilution MIC, bacteria; assay type: cell-based; conditions: ATTC6739
Procedure: as §3

[13] = tested on: Pseudomonas aeruginosa ATCC 25922; experiment: Serial microplate dilution MIC, bacteria; assay type: cell-based; conditions: ATCC25922
Procedure: as §3

[14] = tested on: Enterococcus faecalis ATCC 29212; experiment: Serial microplate dilution MIC, bacteria; assay type: cell-based; conditions: ATCC29212
Procedure: as §3

[15] = tested on: Staphylococcus aureus ATCC 29213; experiment: Serial microplate dilution MIC, bacteria; assay type: cell-based; conditions: ATCC29213
Procedure: as §3

Penicillium janthinellum = experiment: MIC, plant pathogenic fungi; assay type: cell-based
Procedure: as §1
(§4) The antifungal activity of the crude extracts and the five fractions were also tested against 10 plant pathogenic fungi (Aspergillus niger, Aspergillus parasiticus, Colletotrichum gloeosporioides, Fusarium oxysporum, Penicillium digitum, Penicillium expansum, Penicillium italicum, Penicillium janthinellum, Trichoderma harzianum and Rhizoctonia solani).

Penicillium italicum = experiment: MIC, plant pathogenic fungi; assay type: cell-based
Procedure: as §1, §4

[16] = tested on: Colletotrichum gloeosporioides; experiment: MIC, plant pathogenic fungi; assay type: cell-based
Procedure: as §1, §4

Fusarium oxysporum = experiment: MIC, plant pathogenic fungi; assay type: cell-based
Procedure: as §1, §4

Aspergillus niger = experiment: MIC, plant pathogenic fungi; assay type: cell-based
Procedure: as §1, §4

Aspergillus parasiticus = experiment: MIC, plant pathogenic fungi; assay type: cell-based
Procedure: as §1, §4

Penicillium expansum = experiment: MIC, plant pathogenic fungi; assay type: cell-based
Procedure: as §1, §4

Trichoderma harzianum = experiment: MIC, plant pathogenic fungi; assay type: cell-based
Procedure: as §1, §4

Penicillium digitum = experiment: MIC, plant pathogenic fungi; assay type: cell-based
Procedure: as §1, §4

Rhizoctonia solani = experiment: MIC, plant pathogenic fungi; assay type: cell-based
Procedure: as §1, §4

in vitro [17] = conditions: human

In the case of `CC(=O)OCC1=CCc2c(cc(O)c3c(=O)cc(C)oc23)OC1` [Compound 2, 8,11-Dihydro-5-hydroxy-12-hydroxymethyl-2-methyl-4H-pyrano[2,3-g][1]benzoxepin-4-one 12-O-acetate], the MIC (Aspergillus fumigatus) is reported as 16 µg/mL (≈ 50.6 µM), the MIC (Cryptococcus neoformans) is reported as 8 µg/mL (≈ 25.3 µM) and the MIC [1] is reported as 2 µg/mL (≈ 6.32 µM). The MIC [2] was 62.5 µg/mL (≈ 198 µM), the “LC50 (cytotoxicity)” value (mouse fibroblast cells) was 7.23 µg/mL (≈ 22.9 µM) and the CC50 at 5 days (in vitro [3]) was 7.23 µg/mL (≈ 22.9 µM). For the same molecule, the MIC (Mycobacterium fortuitum; Mycobacterium fortuitum) was 8 µg/mL (≈ 25.3 µM), the MIC (Mycobacterium fortuitum; Mycolicibacterium fortuitum, M. fortuitum, read-out: MIC) was 8 µg/mL (≈ 25.3 µM) and the MIC (Mycobacterium aurum) was 125 µg/mL (≈ 395 µM). For the same molecule, the EC50 [4] was 0.224 ± 0.0286 mg/mL (≈ 707 µM), the MIC (Mycobacterium bovis; Mycobacterium bovis) was 31.5 µg/mL (≈ 99.6 µM) and the MIC (Mycobacterium bovis; Mycobacterium tuberculosis variant bovis) was 31.5 µg/mL (≈ 99.6 µM). For the same molecule, the MIC [5] was 31.5 µg/mL (≈ 99.6 µM), the EC50 ([6]; Haemonchus contortus larvae, read-out: EC50 against larvae) was 0.0956 mg/mL (≈ 302 µM) and the EC50 ([6]; larva of Haemonchus contortus, read-out: Antihelminthic activity EC50 (mg/ml) LDT) was 0.0956 ± 0.002 mg/mL (≈ 302 µM). For the same molecule, the CC50 (in vitro [7]; monkey and human) was > 200 µg/mL, the MIC (Mycobacterium smegmatis; Mycobacterium smegmatis) was 16 µg/mL (≈ 50.6 µM) and the MIC (Mycobacterium smegmatis; Mycolicibacterium smegmatis, M. smegmatis, read-out: MIC) was 16 µg/mL (≈ 50.6 µM). The MIC ([8]; 12 h, 12 h incubation, C. albicans 1051255) was > 250 µg/mL, the MIC ([8]; 12 h, 12 h incubation, C. albicans 1051604) was > 250 µg/mL and the MIC ([8]; 12 h, 12 h incubation, C. albicans 1051608) was 8 µg/mL (≈ 25.3 µM). For the same molecule, the MIC ([8]; 12 h, 12 h incubation, C. albicans ATCC 10231) was 4 µg/mL (≈ 12.6 µM), the MIC ([8]; 12 h, 12 h incubation, C. albicans M0824) was > 250 µg/mL and the MIC ([8]; 12 h, 12 h incubation, C. albicans M0825) was > 250 µg/mL. The MIC ([8]; 12 h, 12 h incubation, C. albicans M0826) was > 250 µg/mL, the MIC ([8]; 24 h, 24 h incubation, C. albicans 1051255) was > 250 µg/mL and the MIC ([8]; 24 h, 24 h incubation, C. albicans 1051604) was > 250 µg/mL. For the same molecule, the MIC ([8]; 24 h, 24 h incubation, C. albicans 1051608) was 250 µg/mL (≈ 790 µM), the MIC ([8]; 24 h, 24 h incubation, C. albicans ATCC 10231) was 4 µg/mL (≈ 12.6 µM) and the MIC ([8]; 24 h, 24 h incubation, C. albicans M0824) was > 250 µg/mL. The MIC ([8]; 24 h, 24 h incubation, C. albicans M0825) was > 250 µg/mL, the MIC ([8]; 24 h, 24 h incubation, C. albicans M0826) was > 250 µg/mL and the MIC ([8]; C. albicans ATCC 10231, mean value) was 4 µg/mL (≈ 12.6 µM). The “Selectivity index (SI)” value ([8]; C. albicans 1051255) was <0.029, the “Selectivity index (SI)” value ([8]; C. albicans 1051604) was <0.029 and the “Selectivity index (SI)” value ([8]; C. albicans 1051608) was 0.029. The “Selectivity index (SI)” value ([8]; C. albicans ATCC 10231) was 1.808, the “Selectivity index (SI)” value ([8]; C. albicans M0824) was <0.029 and the “Selectivity index (SI)” value ([8]; C. albicans M0825) was <0.029. The “Selectivity index (SI)” value ([8]; C. albicans M0826) was <0.029, the “Selectivity index (SI) Average” value ([8]; average over ATCC 10231 and clinical isolates) was 0.283 and the MIC [9] was 31.5 µg/mL (≈ 99.6 µM). The MIC [10] was 31.5 µg/mL (≈ 99.6 µM), the MIC [11] was 80 µg/mL (≈ 253 µM) and the MIC [12] was 80 µg/mL (≈ 253 µM). For the same molecule, the MIC [13] was 31.5 µg/mL (≈ 99.6 µM), the MIC [14] was > 250 µg/mL and the MIC [15] was 31.5 µg/mL (≈ 99.6 µM). The MIC (Penicillium janthinellum) was 63 µg/mL (≈ 199 µM), the MIC (Penicillium italicum) was 125 µg/mL (≈ 395 µM) and the MIC [16] was 32 µg/mL (≈ 101 µM). The MIC (Fusarium oxysporum) was 63 µg/mL (≈ 199 µM), the MIC (Aspergillus niger) was 32 µg/mL (≈ 101 µM) and the MIC (Aspergillus parasiticus) was 250 µg/mL (≈ 790 µM). For the same molecule, the MIC (Penicillium expansum) was 32 µg/mL (≈ 101 µM), the MIC (Trichoderma harzianum) was 16 µg/mL (≈ 50.6 µM) and the MIC (Trichoderma harzianum; T. harzianum, read-out: MIC) was 16 µg/mL (≈ 50.6 µM). For the same molecule, the MIC (Penicillium digitum) was 32 µg/mL (≈ 101 µM), the MIC (Rhizoctonia solani) was 8 µg/mL (≈ 25.3 µM) and the MIC (Rhizoctonia solani; R. solani, read-out: MIC) was 8 µg/mL (≈ 25.3 µM).
In the case of `COc1cccc2c1C(=O)c1c(O)c3c(c(O)c1C2=O)C[C@@](O)(C(=O)CO)C[C@@H]3O[C@H]1C[C@H](N)[C@H](O)[C@H](C)O1` [doxorubicin, reference compound], the CC50 (in vitro [7]; monkey) is reported as 2.51 ± 0.203 µM and the CC50 (in vitro [17]) is reported as 0.116 ± 0.0174 µM.
